From patent US9744119B2, “Cosmetic composition and method of preparation” (Momentive Performance Materials Inc., priority 2014, dated 2017)

Assay: Differential scanning calorimetry (DSC) of niacinamide and its 2% blends with silicones
Format: physicochemical
Protocol: To further understand the difference in interaction between ionically modified silicone and control/Silsoft silicone gel, differential scanning calorimetry (DSC) studies were carried out on pure active-niacinamide, and its blends with silsoft silicone and ionically modified silicone. 2% Niacinamide blends were prepared by thoroughly mixing Niacinamide with above silicones using spatula followed by high-speed mixing in Flack-Tek for 5 minutes. The free Niacinamide and Niacinamide loaded Silsoft silicone gel and ionically modified silicone were subjected to a heating and cooling cycle under nitrogen atmosphere. The DSC thermograms are show in FIG. 2.

With `NC(=O)c1cccnc1` [Niacinamide, niacinamide] the “ΔH (heat change associated with the melting of Niacinamide)” value (nitrogen atmosphere) was 218.7 J/g and the “% Crystallinity (crystalline Niacinamide)” value (relative to pure niacinamide) was 100%.
